Measurements taken from US11406713B2, “Xanthine oxidase inhibitor formulations” (XORTX THERAPEUTICS, INC., priority 2013, dated 2022).

What was measured:
[1] = background statement; cited from earlier work
[2] = background statement; cited from earlier work; remark: listed apart in the source
[3] = equilibrium solubility and dissolution profile of oxypurinol in aqueous solution; assay type: physicochemical; conditions: for equilibrium solubility, dissolution and solubility: compared to oxypurinol free acid (FIG. 1)

SMILES | solubility [1] | bioavailability [2] | equilibrium solubility, dissolution and solubility ([3]; aqueous solution, in the presence of a 1 molar equivalent of lysine, FIG. 2) | equilibrium solubility, dissolution ([3]; in choline, FIG. 4) | equilibrium solubility, dissolution and solubility ([3]; in the presence of a 1 molar equivalent of L-arginine, FIG. 3) | equilibrium solubility, dissolution rate and solubility ([3]; using organic and or basic organic molecules, in aqueous solutions, compared to oxypurinol free acid)
Oc1ncnc2[nH]ncc12 [Allopurinol, 4-hydroxy-pyrazolo[3,4-d]pyrimidine] | poorly soluble | poorly bioavailable |  |  |  | 
O=c1[nH]c(=O)c2c[nH]nc2[nH]1 [oxypurinol, 4,6-dihydroxypyrazolo[3,4-d]pyrimidine] | poorly soluble | poorly bioavailable | increased dissolution and solubility | increased dissolution | increased dissolution and solubility | increased equilibrium solubility, increased dissolution rate and solubility
